Earlier results, collected in patent US20210321634A1, “Lactobacillus Acidipiscis, Fermented Soymilk, and Preparation Method and Use Thereof” (Hebei Agricultural University, priority 2020, published 2021).

Tests used:
[1] = compared with daidzein and genistein
[2] = compared with daidzein

| Compound | DPPH free radical scavenging activity [1] | cardiovascular protective activity [2] |
| --- | --- | --- |
| O=C1c2c(O)cc(O)cc2OCC1c1ccc(O)cc1 (stereo not drawn) [DHG, dihydrogenistein] | significantly higher |  |
| O=C1c2ccc(O)cc2OCC1c1ccc(O)cc1 (stereo not drawn) [DHD, dihydrodaidzein] | significantly higher | significantly higher |
